Molecules are shown by their SMILES. Some results are limits rather than exact numbers.

The text below walks through data of patent publication US20230068020A1, “MACROLIDE COMPOUND AND ITS USE OF TREATMENT CHRONIC RESPIRATORY DISEASE” (priority 2020, published 2023).

Common to all, as to assay type: cell-based
In series [1] the test system is THP-1 cell. Put plainly: Differentiation of monocyte to macrophage in THP-1 cell line. The conditions noted are these: Homo sapiens; for EC50: THP-1 differentiate to macrophage, PMA, 96 hrs incubation; for Emax: ratio of best effect of compound to that of erythromycin 100 uM, THP-1 differentiation, read-out: Maximal activation level. The method, then: The THP-1 cell line was purchased from ATCC (American Type Culture Collection, Manassas, Va.). Cells were maintained in growth medium (RPMI-1640) with supplemented with 10% heat inactivated bovine serum, 100× Glutamax medium and 0.05 mM β-Mercaptoethanol at 37° C. under 5% CO2. Compounds were dissolved in 0.1% DMSO. Erythromycin was used as a positive control.
For the assessment of the effect of compounds of the present invention on differentiation of monocyte to macrophage in THP-1 cell line, cells were collected and centrifuged at 900 rpm for 4 minutes. The cell density was adjusted to 2.5×10^5/mL. cell suspension of 400 μL was added to each well of 48-well plate following the plate layout. PMA 1 mg, a compound can induce monocyte differentiation, was dissolved in 10 mL DMSO to form 100 μg/mL solution and aliquote it into 1 mL per vial. 1 mL solution can be further aliquoted into 10 μL per vial and stored the aliquots at −20° C. Make 10-fold dilution of PMA with DMSO and then 500-fold dilution with complete medium. 50 μL solution were then added to each well of 48-well plate following the plate layout. Erythromycin and compounds of examples at stock concentration of 10 mM was serially diluted at 10-fold in DMSO. 50 μL solution was added to each well of 48-well plate following the plate layout. After 96 hrs incubation at 37° C., 5% CO2, the plate was washed with DPBS for three times to remove non-adherent cells for three times. Complete medium 180 μL and alarmar blue 20 μL was added to each well. The fluorescent intensity was read at excitation 530 nm and emission 590 nm using PerkinElmer Victor3 after 3 hours plate incubation.
The differentiation activity of compounds of Examples is compared to that of 100 μM erythromycin and the results are shown in FIG. 1 and Table 3.

The subject of series [2] is THP-1 cell. Briefly: Cell viability (LD50) in THP-1 differentiation test. The conditions noted are these: human. The protocol: The medium lethal dose (LD50) is the dosage of a compound that reduces the cell viability by 50%, and is determined using non-linear logistic regression.
Series [3] has as its system Haemophilus influenzae ATCC 49247. Put plainly: Antibacterial activity, agar dilution MIC. The conditions noted are these: ATCC49247, 20-24 hrs incubation, read-out: minimum inhibitory concentration MIC. The protocol: (§1) The antibacterial activity of Erythromycin and compounds of examples were evaluated by the agar dilution method, following the guidelines of the CLSI. […] Briefly, bacteria were grown overnight in adapted media (MHIIA with 5% of sheep blood for Streptococcus pneumoniae and Haemophilus influenzae, and MHIIA for the other bacteria strains) at 35° C., 5% CO2.
(§2) Cultures were centrifuged at 3000×g for 15 min. Pellets were diluted with 5 mls cold PBS and the OD600nm was adjusted to 10^8 CFU.mL^−1 with a spectrometer. Bacteria were then added to 96-well test plates. Compounds were diluted in DMSO in a 2 fold steps from 20 mg/ml in DMSO in 96 well plated and transferred to the test plate. During the incubation, the plate was maintained at 35° C., 5% CO2.
(§3) The MICs for Erythromycin and compounds of examples were determined after 20-24 hrs incubation.
(In general: In agar dilution, organisms are placed on agar that contains the substance at set levels.)

In series [4] the test system is Acinetobacter baumannii ATCC-BAA-1605. Briefly: Antibacterial activity, agar dilution MIC. The conditions noted are these: ATCCBAA1605, 20-24 hrs incubation, read-out: minimum inhibitory concentration MIC. The method, then: as §1, §2, §3
Series [5] has as its system Staphylococcus aureus ATCC 29213. Briefly: Antibacterial activity, agar dilution MIC. Particulars: ATCC29213, 20-24 hrs incubation, read-out: minimum inhibitory concentration MIC. The method, then:
as §1, §2, §3

For series [6], the system named is Enterococcus faecalis ATCC 29212. Put plainly: Antibacterial activity, agar dilution MIC. Particulars: ATCC29212, 20-24 hrs incubation, read-out: minimum inhibitory concentration MIC. The protocol: as §1, §2, §3
Series [7] relates to Acinetobacter baumanii ATCC 17978. Briefly: Antibacterial activity, agar dilution MIC. Particulars: Acinetobacter baumannii, ATCC17978, 20-24 hrs incubation, read-out: minimum inhibitory concentration MIC. The method, then: as §1, §2, §3
In series [8] the test system is Streptococcus pyogenes ATCC BAA-572. Briefly: Antibacterial activity, agar dilution MIC. The conditions noted are these: ATCCBAA572, 20-24 hrs incubation, read-out: minimum inhibitory concentration MIC. The method, then: as §1, §2, §3
For series [9], the system named is Streptococcus pneumoniae ATCC 49619. Put plainly: Antibacterial activity, agar dilution MIC. The conditions noted are these: ATCC49619, 20-24 hrs incubation, read-out: minimum inhibitory concentration MIC. The method, then:
as §1, §2, §3

The test system of series [10] is Streptococcus pneumoniae ATCC 6301. Put plainly: Antibacterial activity, agar dilution MIC. Particulars: ATCC6301, 20-24 hrs incubation, read-out: minimum inhibitory concentration MIC. The protocol: as §1, §2, §3
Series [11] has as its system Staphylococcus aureus NRS 384. Put plainly: Antibacterial activity, agar dilution MIC. Particulars: NRS384, 20-24 hrs incubation, read-out: minimum inhibitory concentration MIC. The method, then:
as §1, §2, §3

Series [12] concerns Moraxella catarrhalis ATCC 43617. Put plainly: Antibacterial activity, agar dilution MIC. Particulars: ATCC43617, 20-24 hrs incubation, read-out: minimum inhibitory concentration MIC. The method, then:
as §1, §2, §3

A further series deals with BEAS-2B cell. Briefly: Cell viability (LD10) in BEAS-2B IL-8 test. Particulars: BEAS-2B cell viability. The text has this:
The lethal dose (LD10) is the dosage of a compound that reduces the cell viability by […], and is estimated from non-linear logistic regression.

In series [13] the test system is IL-8 expression in BEAS-2B cell. Put plainly: LPS induced IL-8 release by BEAS-2B (ELISA). The conditions noted are these: for Maximum Inhibition: IL-8 expression in BEAS-2B cells, LPS; for IC10: concentration inhibiting IL-8 production on BEAS-2B by 10%, LPS 20 μg/mL. The protocol:
The inhibitory effect of compounds of Examples on the IL-8 expression in BEAS-2B cell was tested using the following method. BEAS-2B was purchased from ATCC (American Type Culture Collection, Manassas, Va.). Cells were maintained in growth medium (LHC-9) and cultured at 37° C. under 5% CO2. Compounds were dissolved in 0.1% DMSO. Erythromycin was used as a positive control.
For the assessment of the effect of compounds of Examples on IL-8 expression inhibition in BEAS-2B cell line, cells were plated in 24 well plate at a density of 100,000/mL, in a final volume of 1 mL of assay medium. Cells were incubated at 37° C., 5% CO2 for 1 day. After the incubation, compounds were added at day 2 and LPS was added at day 3. A compound source plate was prepared by triplicate five-point 10-fold or 2-fold serial dilutions in DMSO, beginning at 1 mM (final top concentration of compounds of Examples in the assay was 100 μM and the DMSO was 0.1%). The positive control consisted of cells treated with 100 μM erythromycin and negative control was consisted of 0.1% DMSO treated cells. LPS stock solution at 5 mg/mL was made by dissolving 10 mg of LPS powder into 2 mL of ddH2O and aliquoted to 100 μL per vial. Final concentration of LPS in the assay was […] by making 125-fold dilution of stock solution with medium.
Specific immunoreactivity for IL-8 in culture supernatants were measured by a commercially available ELISA kits (R&D Systems, Inc., Minneapolis, Minn.). Each sample was assayed in duplicates as recommended by the manufacture. The concentration of compounds of Examples inhibiting IL-8 production on BEAS-2B by 10% was estimated from a 4-parametric of the normalized dose response curve. (IC10)
Background: An ELISA detects its analyte on a solid surface through an enzyme-linked reagent.

On to `CC[C@H]1OC(=O)[C@H](C)[C@@H](OC2CC(C)(OC)C(O)C(C)O2)[C@H](C)[C@@H](OC2CC(N(C)C(C)=O)CC(C)O2)C(C)(O)C[C@@H](C)C(=O)[C@H](C)[C@@H](O)[C@]1(C)O` (stereo in doubt) [LY101-22, N-((2S,4S,6R)-2-(((3R,4S,5S,6R,7R,9R,11R,12R,13S,14R)-14-ethyl-7,12,13-trihydroxy-4-(((2R,4R,5S,6S)-5-hydroxy-4-methoxy-4,6-dimethyltetrahydro-2H-pyran-2-yl)oxy)-3,5,7,9,11,13-hexamethyl-2,10-dioxooxacyclotetradecan-6-yl)oxy)-6-methyltetrahydro-2H-pyran-4-yl)-N-methylacetamide], for which the EC50 with THP-1 cell [1] turned out to be 12.1 ± 2.7 µM. Besides, the Emax in the series on THP-1 cell [1] worked out at 790 ± 50%. In the series on THP-1 cell [2], this compound had an LD50 of 125 ± 7.1 µM. Further, the MIC in [3], in series [4], in series [5], in series [6], in series [7] and in [8] was > 128 µg/mL in each case. Besides, the MIC in series [9], in series [10], in series [11] and in series [12] was > 128 µg/mL in each case. In addition, the LD10 in the series on BEAS-2B cell was found to be 100 µM. Further, the “Maximum Inhibition” value in series [13] is listed as 33%. Besides, the “IL-8 inhibitory activity compared with erythromycin” value in [13] (at 100 μM concentration, BEAS-2B) is “more potent inhibitory activity than erythromycin”. This compound also had an IC10 in series [13] of 10 µM.
Consider `CC[C@H]1OC(=O)[C@H](C)[C@@H](O[C@H]2C[C@@](C)(OC)[C@@H](O)[C@H](C)O2)[C@H](C)[C@@H](O[C@H]2C[C@@H](NC)C[C@@H](C)O2)[C@@](C)(O)C[C@@H](C)C(=O)[C@H](C)[C@@H](O)[C@]1(C)O` [LY101-25, (3R,4S,5S,6R,9R,11R,12R,13S,14R)-14-ethyl-7,12,13-trihydroxy-4-(((2R,4R,5S,6S)-5-hydroxy-4-methoxy-4,6-dimethyltetrahydro-2H-pyran-2-yl)oxy)-3,5,7,9,11,13-hexamethyl-6-(((2S,4S,6R)-6-methyl-4-(methylamino)tetrahydro-2H-pyran-2-yl)oxy)oxacyclotetradecane-2,10-dione], for which a half-maximal effect with THP-1 cell [1] (EC50) was put at 1 ± 0.3 µM. In the series with THP-1 cell [1], the Emax is 540 ± 110%. For the same compound, the LD50 in the series with THP-1 cell [2] amounted to 21.1 ± 5.3 µM. Moreover, the MIC in series [3], in series [4], in [5], in series [6], in [7] and in series [8] was > 128 µg/mL each time. In addition, the MIC in [9], in series [10], in series [11] and in [12] was > 128 µg/mL throughout. In the series with BEAS-2B cell, the LD10 was determined as 15 µM. Further, the “Maximum Inhibition” value in series [13] came to 53%. This compound also had an IC10 in series [13] of 1 µM.
`CC[C@H]1OC(=O)[C@H](C)[C@@H](OC2CC(C)(OC)C(O)C(C)O2)[C@H](C)[C@@H](OC2CC(N(C)C)CC(C)O2)[C@@](C)(O)C[C@@H](C)/C(=N\OCOCCOC)[C@H](C)[C@@H](O)[C@]1(C)O` (some centres unmarked) [LY101-39] came in with an EC50 with THP-1 cell [1] of 10.1 ± 2.2 µM. The Emax with THP-1 cell [1] is 740 ± 80%. Further, the LD50 in the series on THP-1 cell [2] turned out to be 90.0 ± 18.4 µM. Moreover, the MIC in [3], in series [4], in series [5], in [6], in series [7] and in [8] was > 128 µg/mL each time. Further, the MIC in series [9], in series [10], in series [11] and in [12] was > 128 µg/mL in each case. The compound also yielded an LD10 with BEAS-2B cell of 100 µM. Besides, the “Maximum Inhibition” value in [13] worked out at 35%. Further, the IC10 in series [13] is 20 µM.
Consider `CC[C@H]1OC(=O)[C@H](C)[C@@H](OC2CC(C)(OC)C(O)C(C)O2)[C@H](C)[C@@H](OC2CC(N(C)C)CC(C)O2)[C@@](C)(O)C[C@@H](C)[C@H](O)[C@H](C)[C@@H](O)[C@]1(C)O` (some centres unmarked) [LY101-45], for which, in the series on THP-1 cell [1], the EC50 was 1.5 ± 0.7 µM. Also, the Emax with THP-1 cell [1] was found to be 530 ± 60%. This compound also yielded an LD50 with THP-1 cell [2] of 24.2 ± 5.1 µM. In addition, the MIC in [3], in series [4], in [5], in [6], in [7] and in series [8] was > 128 µg/mL throughout. The MIC in [9], in series [10], in series [11] and in series [12] was > 128 µg/mL in each case. In addition, the LD10 in the series on BEAS-2B cell was 15 µM. In addition, the “Maximum Inhibition” value in series [13] came to 40%. The same compound gave an IC10 in [13] of 1 µM.

The term EC50 denotes the concentration at which the effect is half-maximal. The term IC10 denotes the point of the concentration-response curve where the effect stands at 10%. A lower IC10 goes with an effect from little substance.
